Experimental data reported in US9545393B2, “Methods and compositions for treating pain” (The Board of Trustees of the Leland Stanford Junior …, priority 2012, dated 2017).

Tested on: rats subjected to carrageenan insult to the right hind paw
Assay: Randall-Selitto paw pressure test, carrageenan-induced hyperalgesia in rats
Assay type: in vivo, rat
Details: naloxone 1 mg/kg s.c., with or without Alda-1; carrageenan rats
Experimental: Rats. Male Wistar rats (170-190 g) were provided by Charles River Laboratories or Butantan Institute Animal Facility and housed in a temperature-controlled (22±1° C.) and light-controlled (12/12 h light/dark cycle) room. All rats were housed in their surrounding for at least 3 days. Groups of 5-6 rats were used.
Drugs Used. 0.1 ml saline (control), carrageenan (200 μg for rats, 100 μg for mice; Marine Colloids), or prostaglandin E2 (100 ng, Sigma) was administered by intraplantar injection into the right hind paw to induce hyperalgesia. These doses were chosen based on previous studies by our laboratory groups (Aley K O, et al., (2000) Chronic hypersensitivity for inflammatory nociceptor sensitization mediated by the epsilon isozyme of protein kinase C. The Journal of neuroscience: the official journal of the Society for Neuroscience 20: 4680-4685; Konno K, et al., (2008) Crotalphine, a novel potent analgesic peptide from the venom of the South American rattlesnake Crotalus durissus terrificus. Peptides 29: 1293-1304).
Alda-1 dose (2 mg/kg/per injection, dissolved in 50% PEG/50% DMSO) was established in preliminary studies and given in multiple doses due to its estimated short half-life. Alda-1 was injected subcutaneously to the dorsal side of the neck 15 minutes before carrageenan or saline, and again at 30 and 150 minutes after carrageenan, prostaglandin E2 or saline injection. One subset of animals received Alda-1 only 30 and 150 minutes after carrageenan injection. Where indicated, naloxone (1 mg/kg per injection) or vehicle (saline) was given 10 minutes prior to each Alda-1 treatment to the dorsal side of the neck.
Nociception Assessment. The experimental performer was blinded to both genotype and/or treatments. Nociceptive response was assessed by the von Frey method for mice and the Randall-Selitto method for rats immediately before and 180 minutes after carrageenan or prostaglandin E2 injection. Both mice and rats were acclimated to the testing equipment one day before baseline testing.
Randall-Selitto method: Nociceptive threshold was determined using the Randall-Selitto paw pressure test (Ugo-Basile), as previously described (Gutierrez V P, et al., (2008) Crotalphine induces potent antinociception in neuropathic pain by acting at peripheral opioid receptors. European journal of pharmacology 594: 84-92). The baseline values varied between 65-75 g of force. Animals with baseline out of this range (about 10%) were excluded prior to initiating the study in order to achieve uniform testing.

C=CCN1CC[C@]23c4c5ccc(O)c4O[C@H]2C(=O)CC[C@@]3(O)[C@H]1C5 [Naloxone, reference compound]
Effect of naloxone on nociceptive threshold: no effect
